Read-outs that look alike come from different tables or passages of the source.
Assays:
OE21 cell = assay: Cell proliferation inhibitory activity (Cell-Titer-Glo), OE21; type: cell-based; conditions: OE21, 72 h; 3 days incubation
From the text: (§1) Experimental Embodiment 2: Evaluation of Cell Proliferation Inhibitory Activity
(§2) Experiment objective: To detect cell proliferation inhibitory activity of the tested compounds.
(§3) Experimental principle: The luciferase in the Cell-Titer-Glo reagent produces oxyluciferin using luciferin, oxygen and ATP as reaction substrates, and releases energy in the form of light. Since the reaction of luciferase requires ATP, the total amount of light generated by the reaction is proportional to the total amount of ATP that reflects cell viability.
(§4) Cell lines: MCF-7 cell line […], HT-29 cell line (ATCC-HTB-38), OE21 (ECACC-96062201), NCI-N87 cell line (ATCC-CRL-5822)
(§5) Cell culture medium: (RPMI 1640 culture medium (Invitrogen #1868546; 10% serum Invitrogen #1804958; L-glutamine 1×, Invitrogen #1830863; dual antibiotic Hyclone #J170012))
(§6) Cell Titer-Glo® Luminescent Cell Viability Assay Kit (Promega #G7573)
(§7) The cells were inoculated in a 384- or 96-well plate with a density of 1000 cells per well and 25 μL per well according to the instructions of the cell inoculating plate. The edge wells were not inoculated with cells, and was supplemented with […].
(§8) (i) The mother solution of the compound was 10 mM, and diluted with DMSO to an initial concentration of 4 mM. The compound was added to the compound mother solution, 9 μL per well.
(§9) (ii) The compound was diluted with ECHO liquid-handling workstation. Each well of the cell plate was added with 125 nL compound. Each well of the cell wells in 2nd column and 23rd column was added with 125 nL DMSO, and each of the PBS wells in 1st column and 24th column was added with 125 nL DMSO.
(§10) (iii) Each well of the cell plate was supplemented with 25 μL culture medium, the final volume in each well of the cell plate was 50 μL, […] 3 times dilution, 10 concentrations, each concentration was duplicated in left and right wells, the final DMSO concentration was 0.25%.
(§11) 2.3. After addition of the compound, centrifugation was performed at 1000 rpm for 1 min, and the cell plate was placed in a 37° C., 5% CO2 incubator for 3 days.
(§12) The cell plate was taken out from the incubator and equilibrated at room temperature for 30 minutes. 25 μL Cell-Titer-Glo reagent was added to each well, shaken for one minute to mix thoroughly, centrifuged at 1000 rpm for 1 minute. After 10 minutes, the plate was read on PerkinElmer Envision with a […] reading time was set at 0.2 second.

HT-29 cell = assay: Cell proliferation inhibitory activity (Cell-Titer-Glo), HT-29; type: cell-based; conditions: Homo sapiens, HT-29, 72 h, 3 days incubation
From the text: as §1, §2, §3, §4, §5, §6, §7, §8, §9, §10, §11, §12

[1] = Pharmacokinetic evaluation in plasma after IV and PO administration; type: in vivo; conditions: female Balb/c mice; for AUC(0-inf) / AUC(0-t) / C0 / clearance / half-life / MRT inf / MRT last / Vd / Cmax / Tmax / bioavailability: mouse; for MRT inf: read-out: MRT0-inf; for MRT last: read-out: MRT0-last; for Vd: read-out: Vdss
Procedure: Experimental Embodiment 3: Pharmacokinetic Evaluation
The test compound was mixed with […] (Cremophor EL), vortexed and sonicated to prepare a 1 mg/mL near-clear solution, which was filtered with a microporous filter membrane for future use. Female Balb/c mice of 18 to 20 grams were selected and the solution of the test compound was administered intravenously at a dose of 1 or 2 mg/kg. The test compound was mixed with an aqueous solution of 1% Tween 80, 9% polyethylene glycol 400, and 90% water, vortexed and sonicated to prepare 1 mg/mL near-clear solution, which was filtered with a microporous filter membrane for future use.
Female Balb/c mice of 18 to 20 grams were selected, and the solution of the test compound was orally administered at a dose of 2 or 10 mg/kg. The whole blood was collected at a certain time, and prepared into plasma. The drug concentration was analyzed by LC-MS/MS, and the pharmacokinetic parameters were calculated using Phoenix WinNonlin software (Pharsight Corporation, USA).

[2] = target: T1, mTOR kinase (mTORC1 and mTORC2 kinase complex) (Homo sapiens, UniProt P42345); assay: In vitro evaluation of mTOR kinase inhibitory activity (DiscoverX ligand-bead competition binding, qPCR readout)
T1 construct: purchased DiscoverX; host or cells: HEK-293
In short: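 Tagged mTOR expressed in HEK-293 cells was combined with streptavidin beads carrying biotinylated ligand and DMSO-dissolved compound, shaken 1 h at room temperature. Beads were washed, then eluted 30 min with […] non-biotin affinity ligand. Kinase in eluate quantified by qPCR.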

Question: For `CNC(=O)c1cccc(-c2ccc3c(N4CCOC[C@@H]4C)nc(N4CCOC[C@@H]4C)nc3n2)c1` [AZD2014, reference compound], which IC50 (OE21 cell) is on record?
Answer: 148 nM

Question: What about the IC50 (HT-29 cell) of the same compound?
Answer: 316 nM

Question: What about the Tlast ([1]; IV 1 mg/kg) of the same compound?
Answer: 8.00 h

Question: What about the AUCExtra ([1]; IV 2 mg/kg) of the same compound?
Answer: 0.384%

Question: What about the AUMCExtra ([1]; IV 2 mg/kg) of the same compound?
Answer: 2.95%

Question: What about the Tlast ([1]; IV 2 mg/kg) of the same compound?
Answer: 8.00 h

Question: And the AUCExtra ([1]; PO 2 mg/kg)?
Answer: 0.0496%

Question: And the AUMCExtra ([1]; PO 2 mg/kg)?
Answer: 0.347%

Question: What about the Tlast ([1]; PO 2 mg/kg) of the same compound?
Answer: 12.0 h

Question: What about the AUCExtra ([1]; PO 10 mg/kg) of the same compound?
Answer: 0.156%

Question: And the AUMCExtra ([1]; PO 10 mg/kg)?
Answer: 1.82%

Question: And the Tlast ([1]; PO 10 mg/kg)?
Answer: 24.0 h

Question: And the AUC(0-inf) ([1]; IV 1 mg/kg)?
Answer: 4.28 µM·h

Question: What about the AUC(0-t) ([1]; IV 1 mg/kg) of the same compound?
Answer: 4.27 µM·h

Question: And the C0 ([1]; IV 1 mg/kg)?
Answer: 4.79 µM

Question: And the clearance ([1]; IV 1 mg/kg)?
Answer: 8.41 mL/min/kg

Question: What about the half-life ([1]; IV 1 mg/kg) of the same compound?
Answer: 0.967 h

Question: And the MRT inf ([1]; IV 1 mg/kg)?
Answer: 1.88 h

Question: And the MRT last ([1]; IV 1 mg/kg)?
Answer: 0.268 h

Question: What about the Vd ([1]; IV 1 mg/kg) of the same compound?
Answer: 0.677 L/kg

Question: And the AUC(0-inf) ([1]; IV 2 mg/kg)?
Answer: 8.91 µM·h

Question: What about the AUC(0-t) ([1]; IV 2 mg/kg) of the same compound?
Answer: 8.88 µM·h

Question: And the C0 ([1]; IV 2 mg/kg)?
Answer: 8.07 µM

Question: And the clearance ([1]; IV 2 mg/kg)?
Answer: 8.08 mL/min/kg

Question: What about the half-life ([1]; IV 2 mg/kg) of the same compound?
Answer: 1.05 h

Question: And the MRT inf ([1]; IV 2 mg/kg)?
Answer: 1.24 h

Question: What about the MRT last ([1]; IV 2 mg/kg) of the same compound?
Answer: 1.2 h

Question: And the Vd ([1]; IV 2 mg/kg)?
Answer: 0.599 L/kg

Question: And the AUC(0-inf) ([1]; PO 2 mg/kg)?
Answer: 7.24 µM·h

Question: What about the AUC(0-t) ([1]; PO 2 mg/kg) of the same compound?
Answer: 8.24 µM·h

Question: What about the Cmax ([1]; PO 2 mg/kg) of the same compound?
Answer: 4.37 µM

Question: And the Tmax ([1]; PO 2 mg/kg)?
Answer: 0.5 h

Question: What about the bioavailability ([1]; PO 2 mg/kg) of the same compound?
Answer: 96.2%

Question: What about the half-life ([1]; PO 2 mg/kg) of the same compound?
Answer: 1.14 h

Question: And the MRT inf ([1]; PO 2 mg/kg)?
Answer: 1.95 h

Question: And the MRT last ([1]; PO 2 mg/kg)?
Answer: 1.95 h

Question: And the AUC(0-inf) ([1]; PO 10 mg/kg)?
Answer: 41.5 µM·h

Question: What about the AUC(0-t) ([1]; PO 10 mg/kg) of the same compound?
Answer: 41.4 µM·h

Question: What about the Cmax ([1]; PO 10 mg/kg) of the same compound?
Answer: 17 µM

Question: And the Tmax ([1]; PO 10 mg/kg)?
Answer: 0.25 h

Question: What about the bioavailability ([1]; PO 10 mg/kg) of the same compound?
Answer: 93.1%

Question: And the half-life ([1]; PO 10 mg/kg)?
Answer: 3.46 h

Question: And the MRT inf ([1]; PO 10 mg/kg)?
Answer: 2.5 h

Question: What about the MRT last ([1]; PO 10 mg/kg) of the same compound?
Answer: 2.45 h

Question: With `C[C@H]1COCCN1c1nc(N2CCOC3(CC3)C2)nc2nc(-c3cccc(C(N)=O)c3)ccc12` [Embodiment 51] as the compound, how does the AUCExtra ([1]; IV 2 mg/kg) read?
Answer: 0.0469%

Question: And the AUMCExtra ([1]; IV 2 mg/kg)?
Answer: 0.400%

Question: What about the Tlast ([1]; IV 2 mg/kg) of the same compound?
Answer: 12.0 h

Question: What about the AUCExtra ([1]; PO 10 mg/kg) of the same compound?
Answer: 0.225%

Question: What about the AUMCExtra ([1]; PO 10 mg/kg) of the same compound?
Answer: 1.02%

Question: What about the Tlast ([1]; PO 10 mg/kg) of the same compound?
Answer: 12.0 h

Question: What about the AUC(0-inf) ([1]; IV 2 mg/kg) of the same compound?
Answer: 9.37 µM·h

Question: What about the AUC(0-t) ([1]; IV 2 mg/kg) of the same compound?
Answer: 9.73 µM·h

Question: And the C0 ([1]; IV 2 mg/kg)?
Answer: 8.24 µM

Question: And the clearance ([1]; IV 2 mg/kg)?
Answer: 7.72 mL/min/kg

Question: And the half-life ([1]; IV 2 mg/kg)?
Answer: 1.1 h

Question: And the MRT inf ([1]; IV 2 mg/kg)?
Answer: 1.6 h

Question: What about the MRT last ([1]; IV 2 mg/kg) of the same compound?
Answer: 1.59 h

Question: And the Vd ([1]; IV 2 mg/kg)?
Answer: 0.739 L/kg

Question: And the AUC(0-inf) ([1]; PO 10 mg/kg)?
Answer: 42 µM·h

Question: What about the AUC(0-t) ([1]; PO 10 mg/kg) of the same compound?
Answer: 41.9 µM·h

Question: What about the Cmax ([1]; PO 10 mg/kg) of the same compound?
Answer: 12.8 µM

Question: And the Tmax ([1]; PO 10 mg/kg)?
Answer: 0.25 h

Question: What about the bioavailability ([1]; PO 10 mg/kg) of the same compound?
Answer: 89.5%

Question: What about the half-life ([1]; PO 10 mg/kg) of the same compound?
Answer: 1.22 h

Question: What about the MRT inf ([1]; PO 10 mg/kg) of the same compound?
Answer: 3.04 h

Question: And the MRT last ([1]; PO 10 mg/kg)?
Answer: 3.02 h

Question: What about the Kd [2] of the same compound?
Answer: 0.3 nM

Question: For `CNC(=O)c1cccc(-c2ccc3c(N4CCOC[C@@H]4C)nc(N4CCOC5(CCC5)C4)nc3n2)c1` [Embodiment 23], which IC50 (OE21 cell) is on record?
Answer: 257 nM

Question: What about the IC50 (HT-29 cell) of the same compound?
Answer: 607 nM

Question: What about the AUCExtra ([1]; IV 2 mg/kg) of the same compound?
Answer: 0.0592%

Question: What about the AUMCExtra ([1]; IV 2 mg/kg) of the same compound?
Answer: 0.616%

Question: And the Tlast ([1]; IV 2 mg/kg)?
Answer: 12.0 h

Question: And the AUCExtra ([1]; PO 10 mg/kg)?
Answer: 0.414%

Question: What about the AUMCExtra ([1]; PO 10 mg/kg) of the same compound?
Answer: 4.62%

Question: What about the Tlast ([1]; PO 10 mg/kg) of the same compound?
Answer: 24.0 h

Question: And the AUC(0-inf) ([1]; IV 2 mg/kg)?
Answer: 13.4 µM·h

Question: And the AUC(0-t) ([1]; IV 2 mg/kg)?
Answer: 13.4 µM·h

Question: What about the C0 ([1]; IV 2 mg/kg) of the same compound?
Answer: 12.2 µM

Question: What about the clearance ([1]; IV 2 mg/kg) of the same compound?
Answer: 5.08 mL/min/kg

Question: What about the half-life ([1]; IV 2 mg/kg) of the same compound?
Answer: 1.47 h

Question: What about the MRT inf ([1]; IV 2 mg/kg) of the same compound?
Answer: 1.36 h

Question: And the MRT last ([1]; IV 2 mg/kg)?
Answer: 1.35 h

Question: And the Vd ([1]; IV 2 mg/kg)?
Answer: 0.414 L/kg

Question: What about the AUC(0-inf) ([1]; PO 10 mg/kg) of the same compound?
Answer: 60.3 µM·h

Question: And the AUC(0-t) ([1]; PO 10 mg/kg)?
Answer: 60.1 µM·h

Question: What about the Cmax ([1]; PO 10 mg/kg) of the same compound?
Answer: 27.9 µM

Question: And the Tmax ([1]; PO 10 mg/kg)?
Answer: 0.25 h

Question: What about the bioavailability ([1]; PO 10 mg/kg) of the same compound?
Answer: 89.9%

Question: And the half-life ([1]; PO 10 mg/kg)?
Answer: 2.61 h

Question: And the MRT inf ([1]; PO 10 mg/kg)?
Answer: 2.49 h

Question: What about the MRT last ([1]; PO 10 mg/kg) of the same compound?
Answer: 2.39 h

Question: What about the Kd [2] of the same compound?
Answer: 0.38 nM

Reference: patent publication US11377444B2, “Pyridopyrimidine compounds acting as mTORC 1/2 dual inhibitors” (MEDSHINE DISCOVERY INC., priority 2017, dated 2022)
